From PubChem BioAssay AID2060623 (Molecular Pharmacology Branch, DTP, NCI, 2025)

Test system: 227483-062-R1-J1-PDC complex spheroids with HUVEC/MSC, viability
Experiment: Anticancer human tumor 227483-062-R1-J1-PDC patient-derived pancreatic carcinoma cell line growth inhibition [CLK]
Conditions: for IC50: curve of first compound; for viability, T/C: stronger effect = lower value
From the text: A high-throughput screen of multi-cell type tumor spheroids was designed to identify active combinations of […] and targeted small molecules. Complex spheroids include a stromal component modeled by human endothelial cells (HUVEC) and fibroblasts modeled by human mesenchymal stem cells (MSCs). The concentration ranges selected for each drug and investigational agent were based upon clinically achievable concentrations if the clinical Cmax of the agent was known.
Compounds. The drugs and investigational agents: cirtuvivint (SM08502; NSC835563), CC-671 (NSC850746), vemurafenib (NSC761431), tapotoclax (NSC804041), sotorasib (NSC818433), adagrasib (NSC831453), MRTX-1133 (NSC836407), BAY2416964 (NSC825713), copanlisib (NSC816437), inavolisib (NSC800729), abemaciclib (NSC768073), osimertinib (NSC779217), entinostat (NSC756642), eltanexor (KPT-8602, NSC794443), venetoclax (NSC766270), ceralasertib (NSC777638), bortezomib (NSC756655), olaparib (NSC753686), talazoparib (NSC767125), alisertib (NSC759677), peposertib (NSC802822), gemcitabine (NSC613327), 5-fluorouracil (NSC19893), SN-38 (NSC673596), oxaliplatin (NSC266046), paclitaxel (NSC125973), and doxorubicin (NSC123127), were obtained from the National Cancer Institute (NCI) Developmental Therapeutics Program Chemical Repository. The FDA-approved anticancer drug set is available from the Developmental Therapeutics Program at https://dtp.cancer.gov/organization/dscb/obtaining/available plates.htm. […] The stock solutions were prepared in dimethyl sulfoxide (DMSO, Sigma-Aldrich, St. Louis, MO, cat. D2650), except for the platinum complexes which were prepared in saline (Quality Biological, Gaithersburg, MD, cat. 114-055-101), at 800-fold the tested concentration and stored at -70 degrees C prior to their use. All drugs and investigational agents were tested over a range starting from a high concentration at or near the clinical Cmax and decreasing in half-log increments. If the clinical Cmax for an agent had not been determined, the highest concentration tested was 10 microM.
Cell Culture. All cells were maintained in an incubator at 37 degrees C and 5% CO2 with 95% humidity. The PDC lines were cultured according to standard operating procedures established by the NCI PDMR. Briefly, all PDCs were thawed and cultured in Matrigel-coated flasks prepared with a working solution of 1X Ham's F-12 nutrient mix, without supplementation (Invitrogen, Waltham, MA, cat. 11765054), 100 U/mL penicillin-streptomycin (Invitrogen, cat. 15140122), and 2.5% Matrigel (Corning Inc., Corning, NY, cat. 354248) for the first three passages. The 947758-054-R-J2-PDC line was cultured in 6B/Colon 1A media, which includes advanced DMEM/F-12 (Thermo Fisher Scientific, cat. 12634028), 10 mM HEPES (Thermo Fisher Scientific, cat. 15630080), 1X GlutaMAX supplement (Thermo Fisher Scientific, cat. 35050061), 0.1 mg/mL primocin (InvivoGen, cat. ant-pm-2), 10% defined fetal bovine serum, heat inactivated (HyClone Laboratories Inc., cat. SH30070.03HI), 1.25 mM N-Acetyl-L-cysteine (Sigma-Aldrich, cat. A9165), 10 mM nicotinamide (Sigma-Aldrich, cat. N0636), 1X B-27 supplement (Thermo Fisher Scientific, cat. 17504044), 1X N-2 supplement (Thermo Fisher Scientific, cat. 17502048), and 10 microM Y-27632 dihydrochloride (Tocris Bioscience, cat. 1254). The 876862-298-R-J1-PDC was cultured in 6E media, which includes all 6B/Colon 1A media components plus 50% L-WRN conditioned media (ATCC, cat. CRL-3276), 50 ng/mL recombinant human EGF recombinant protein (hEGF; Thermo Fisher Scientific, cat. PHG0311), 10 ng/mL recombinant human fibroblast growth factor 10 (hGFG-10; PeproTech, cat. 100-26), 1 ng/mL recombinant human fibroblast growth factor 2 (hFGF-2; PeproTech, cat. 100-18B), and 1 µM prostaglandin E2 (PGE2; Tocris, cat. 2296). The 227483-062-R1-J1-PDC line was cultured in Panc media, containing all 6E components except hFGF-2, with the addition of 500 nM SB-431542 (Selleckchem, cat. S1067) and 10 nM gastrin (Tocris, cat. 3006). […]

[1] = second compound 0.0316 µM, first compound 0.0316 µM
[2] = second compound 0.0316 µM, first compound 0.1 µM
[3] = second compound 0.0316 µM, first compound 0.316 µM
[4] = second compound 0.0316 µM, first compound 1 µM
[5] = second compound 0.0316 µM, first compound 3.16 µM
[6] = second compound 0.0316 µM, first compound 10 µM
[7] = second compound 0.1 µM, first compound 0.0316 µM
[8] = second compound 0.1 µM, first compound 0.1 µM
[9] = second compound 0.1 µM, first compound 0.316 µM
[10] = second compound 0.1 µM, first compound 1 µM
[11] = second compound 0.1 µM, first compound 3.16 µM
[12] = second compound 0.1 µM, first compound 10 µM
[13] = second compound 0.316 µM, first compound 0.0316 µM
[14] = second compound 0.316 µM, first compound 0.1 µM
[15] = second compound 0.316 µM, first compound 0.316 µM
[16] = second compound 0.316 µM, first compound 1 µM
[17] = second compound 0.316 µM, first compound 3.16 µM
[18] = second compound 0.316 µM, first compound 10 µM
[19] = second compound 1 µM, first compound 0.0316 µM
[20] = second compound 1 µM, first compound 0.1 µM
[21] = second compound 1 µM, first compound 0.316 µM
[22] = second compound 1 µM, first compound 1 µM
[23] = second compound 1 µM, first compound 3.16 µM
[24] = second compound 1 µM, first compound 10 µM
[25] = second compound 3.16 µM, first compound 0.0316 µM
[26] = second compound 3.16 µM, first compound 0.1 µM
[27] = second compound 3.16 µM, first compound 0.316 µM
[28] = second compound 3.16 µM, first compound 1 µM
[29] = second compound 3.16 µM, first compound 3.16 µM
[30] = second compound 3.16 µM, first compound 10 µM
[31] = second compound 10 µM, first compound 0.0316 µM
[32] = second compound 10 µM, first compound 0.1 µM
[33] = second compound 10 µM, first compound 0.316 µM
[34] = second compound 10 µM, first compound 1 µM
[35] = second compound 10 µM, first compound 3.16 µM
[36] = second compound 10 µM, first compound 10 µM
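Also: spheroids exposed to compounds for seven days before readout.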
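For viability, T/C in this document: percent of DMSO vehicle control luminescence as 100% viability.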

For `O=C(c1cc(Cc2n[nH]c(=O)c3ccccc23)ccc1F)N1CCN(C(=O)C2CC2)CC1` + CNC(=O)c1ccc(Nc2nc(OC3CCCC3)c3c(-c4ccc5nc(C)oc5c4)c[nH]c3n2)c(OC)c1, the IC50 (second compound 0.0316 µM) was > 10000 nM, the IC50 (second compound 0.1 µM) was > 10000 nM and the IC50 (second compound 0.316 µM) was > 10000 nM. The IC50 (second compound 1 µM) was > 10000 nM, the IC50 (second compound 3.16 µM) was 44.9 nM and the IC50 (second compound 10 µM) was < 31.6 nM. For the same compound, the viability, T/C [1] was 86.9%, the viability, T/C [2] was 84.9% and the viability, T/C [3] was 119%. It also gave a viability, T/C [4] of 93.1%, a viability, T/C [5] of 100% and a viability, T/C [6] of 98.4%. It also gave a viability, T/C [7] of 86.1%, a viability, T/C [8] of 117% and a viability, T/C [9] of 89.3%. It also gave a viability, T/C [10] of 89.5%, a viability, T/C [11] of 91.5% and a viability, T/C [12] of 91.3%. The viability, T/C [13] was 86.8%, the viability, T/C [14] was 92.9% and the viability, T/C [15] was 78.5%. It also gave a viability, T/C [16] of 89.3%, a viability, T/C [17] of 95.5% and a viability, T/C [18] of 99%. The viability, T/C [19] was 63.3%, the viability, T/C [20] was 60.9% and the viability, T/C [21] was 65.4%. The viability, T/C [22] was 61.1%, the viability, T/C [23] was 80.1% and the viability, T/C [24] was 66.3%. It also gave a viability, T/C [25] of 50.9%, a viability, T/C [26] of 54.5% and a viability, T/C [27] of 40.5%. The viability, T/C [28] was 48.9%, the viability, T/C [29] was 50.3% and the viability, T/C [30] was 47.7%. For the same compound, the viability, T/C [31] was 37%, the viability, T/C [32] was 34% and the viability, T/C [33] was 35.3%. It also gave a viability, T/C [34] of 42.1%, a viability, T/C [35] of 42.3% and a viability, T/C [36] of 39%.
In the case of `CC(CO)NC(=O)c1cc(-c2ccc(Cl)cc2)nn(-c2cnn(C)c2)c1=O` (centres undefined) + CN1CCN(c2cc(C(=O)Nc3cc4cc(-c5cnn(C)c5)ccc4cn3)ccn2)CC1, the IC50 (second compound 0.0316 µM) is reported as > 10000 nM, the IC50 (second compound 0.1 µM) is reported as > 10000 nM and the IC50 (second compound 0.316 µM) is reported as < 31.6 nM. For the same compound, the IC50 (second compound 1 µM) was < 31.6 nM, the IC50 (second compound 3.16 µM) was < 31.6 nM and the IC50 (second compound 10 µM) was < 31.6 nM. It also gave a viability, T/C [1] of 88.9%, a viability, T/C [2] of 89.1% and a viability, T/C [3] of 98.5%. For the same compound, the viability, T/C [4] was 94%, the viability, T/C [5] was 94.7% and the viability, T/C [6] was 82.4%. The viability, T/C [7] was 65.2%, the viability, T/C [8] was 61.3% and the viability, T/C [9] was 66.4%. For the same compound, the viability, T/C [10] was 69%, the viability, T/C [11] was 63.2% and the viability, T/C [12] was 65.4%. For the same compound, the viability, T/C [13] was 6.17%, the viability, T/C [14] was 7.14% and the viability, T/C [15] was 9.66%. For the same compound, the viability, T/C [16] was 6.91%, the viability, T/C [17] was 8.13% and the viability, T/C [18] was 5.79%. It also gave a viability, T/C [19] of 2.97%, a viability, T/C [20] of 2.61% and a viability, T/C [21] of 3.05%. It also gave a viability, T/C [22] of 3.03%, a viability, T/C [23] of 1.78% and a viability, T/C [24] of 1.92%. The viability, T/C [25] was 4.36%, the viability, T/C [26] was 4.28% and the viability, T/C [27] was 3.59%. It also gave a viability, T/C [28] of 2.83%, a viability, T/C [29] of 3.7% and a viability, T/C [30] of 3.41%. It also gave a viability, T/C [31] of 4.97%, a viability, T/C [32] of 2.72% and a viability, T/C [33] of 2.16%. For the same compound, the viability, T/C [34] was 2.15%, the viability, T/C [35] was 2.52% and the viability, T/C [36] was 3%.
